# Where “and” joins values, the source holds several entries; their conditions need not be identical. Equal values may be shown once.
# How the values were obtained:
# Type in all cases: cell-based
# [1] = system: Aspergillus niger (A. niger, KCTC 6196); experiment: Disc diffusion method, clear zone, A. niger; conditions: KCTC6196, Table 19 Antibiotic: ketoconazole (200 μg/mL), read-out: Clear zone (ø, mm) A. niger
# Protocol: (§1) As the strains used for antibacterial activity experiments, Gram-positive bacteria Staphylococcus aureus (S. aureus, KCTC 1916), Gram-negative Escherichia coli (E. coli, KCTC 2571), Pseudomonas aeruginosa (P. aeruginosa, KCTC 2513), Candida albicans (C. albicans, KCTC 7965), and Aspergillus niger (A. niger, KCTC 6196), which were purchased from the Korean collection for Type Cultures (KCTC), were stored and used (Table 5). The inhibitory zones of the extracts were measured by a test method of antibacterial activity to determine the presence or absence of antibacterial activity and to compare the degree of effectiveness of the extracts against the proliferation of bacteria. The antibacterial activity was measured by the disc diffusion method using a paper disc (size: 8 mm, Advantec, Toyo Roshi Kaisha, Ltd., Tokyo, Japan). The strains were each inoculated in an amount of one platinum loop, diluted in 4 mL of sterile water, mixed with a sterilized medium, and the mixture was poured into a prepared plate to be hardened. A 3% extract each was filtered (pore size: 0.4 μm, Advantec MFS, Inc., Tokyo, Japan), and 40 μL was taken and allowed to be absorbed onto a paper disc. After culturing for 24 hours at an appropriate temperature for each strain, the size of the transparent ring formed around the paper disc was measured. [table]
# [2] = system: Candida albicans (C. albicans, KCTC 7965); experiment: Disc diffusion method, clear zone, C. albicans; conditions: Table 19 Antibiotic: ketoconazole (200 μg/mL)
# Protocol: as §1
# [3] = system: Staphylococcus aureus (S. aureus, KCTC 1916); experiment: Disc diffusion method, clear zone, S. aureus
# Protocol: as §1
# [4] = system: Pseudomonas aeruginosa (P. aeruginosa, KCTC 2513); experiment: Disc diffusion method, clear zone, P. aeruginosa; conditions: KCTC2513, Control Group Antibiotic: tetracycline (50 μg/mL), read-out: Clear Zone (ø, mm) P. aeruginosa
# Protocol: as §1
# [5] = system: Escherichia coli (E. coli, KCTC 2571); experiment: Disc diffusion method, clear zone, E. coli
# Protocol: as §1
Structure (SMILES),zone of inhibition at 200 µg/mL [1],"Clear zone (ø, mm) C. albicans [2]","zone of inhibition at 50 µg/mL ([3]; KCTC1916, Control Group Antibiotic: tetracycline (50 μg/mL), read-out: Clear Zone (ø, mm) S. aureus)","zone of inhibition at 100 µg/mL ([3]; KCTC1916, Table 19 Antibiotic: tetracycline (100 μg/mL), read-out: Clear zone (ø, mm) S. aureus)",zone of inhibition at 50 µg/mL [4],"Clear Zone (ø, mm) E. coli ([5]; Control Group Antibiotic: tetracycline (50 μg/mL))","zone of inhibition at 50 µg/mL ([5]; Escherichia coli, KCTC2571, Control Group Antibiotic: tetracycline (50 μg/mL), read-out: Clear Zone (ø, mm) E. coli)","zone of inhibition at 100 µg/mL ([5]; Escherichia coli, KCTC2571, Table 19 Antibiotic: tetracycline (100 μg/mL), read-out: Clear zone (ø, mm) E. coli)"
CC(=O)N1CCN(c2ccc(OCC3COC(Cn4ccnc4)(c4ccc(Cl)cc4Cl)O3)cc2)CC1 (centres unmarked) [ketoconazole],13.2 mm,no antibacterial activity,,,,,,
CN(C)[C@@H]1C(O)=C(C(N)=O)C(=O)[C@@]2(O)C(O)=C3C(=O)c4c(O)cccc4[C@@](C)(O)[C@H]3C[C@@H]12 [tetracycline],,,22.8 mm,18.2 mm,9 mm,19.6 mm and 18.2 mm and 18.5 mm and 20.7 mm and 15.7 mm and 17.8 mm and 14.2 mm,25.6 mm,14.2 mm

# — patent US20240293305A1, “COMPOSITION WITH ANTIMICROBIAL OR ANTIFUNGAL ACTIVITY COMPRISING FERMENTED SCUTELLARIA BAICALENSIS EXTRACT, FERMENTED SALVIA MILTIORRHIZA EXTRACT AND FERMENTED DRYPTERIS CCRASSIRHIZOMA EXTRACT” (Sooy-K Co., LTD., priority 2023, published 2024)
